# Measurements taken from patent US12091385B2, “Pyridinylcyanoguanidine derivative and use thereof” (Rushi Biotech (Hangzhou) Co., Ltd, priority 2021, dated 2024).
# Legend:
# Assay type in all cases: cell-based
# [1] = test system: Human hepatoma cell HepG2; test: CCK-8 cell proliferation assay, HepG2; details: HepG2 cells, 72 hrs with drug, CCK-8, OD 450 nm
# Method: (§1) The effect of samples on the proliferation of human tumor cells in vitro was determined by CCK-8 cell proliferation assay.
# (§2) The cells were assayed through a method including the following steps: • 1) The cells were digested, counted, and prepared into a cell suspension in a corresponding culture medium (Table 1) (5×10^4 cells/ml for CFPAC-1 and RPMI 8226, and 3.5×10^4 cells/ml for rest cells). The cell suspension was added to each well of a 96-well plate in 100 μl/well. • 2) Then the 96-well plate was incubated for 24 hrs in an incubator at 37° C. and 5% CO2. • 3) The drug was diluted with the culture medium to the required working concentration. 100 μl of the corresponding drug containing medium was added to each well.
# [2] = test system: Human multiple myeloma cell RPMI 8226; test: CCK-8 cell proliferation assay, RPMI 8226; details: RPMI8226 cells, 72 hrs with drug, CCK-8, OD 450 nm
# Method: as §1, §2
# [3] = test system: Human colon cancer cell HCT-116; test: CCK-8 cell proliferation assay, HCT-116; details: HCT116 cells, 72 hrs with drug, CCK-8, OD 450 nm
# Method: as §1, §2
# [4] = test system: Human gastric cancer cell MKN45; test: CCK-8 cell proliferation assay, MKN45; details: MKN-45 cells, 72 hrs with drug, CCK-8, OD 450 nm
# Method: as §1, §2
# [5] = test system: Human lung adenocarcinoma cell A549; test: CCK-8 cell proliferation assay, A549; details: A549 cells, 72 hrs with drug, CCK-8, OD 450 nm
# Method: as §1, §2
# [6] = test system: Human pancreatic cancer cell CFPAC-1; test: CCK-8 cell proliferation assay, CFPAC-1; details: CFPAC-1 cells, 72 hrs with drug, CCK-8, OD 450 nm
# Method: as §1, §2
# [7] = test system: Human esophageal cancer cell TE-1; test: CCK-8 cell proliferation assay, TE-1; details: TE-1 cells, 72 hrs with drug, CCK-8, OD 450 nm
# Method: as §1, §2
Compound,IC50 [1] [nM],IC50 [2] [nM],IC50 [3] [nM],IC50 [4] [nM],IC50 [5] [nM],IC50 [6] [nM],IC50 [7] [nM]
"N#CN=C(NCCCCCCC1CCN(C(=O)C2CCCS2)C1)Nc1cccnc1 (stereo not drawn) [BSS-PC063, 2-cyano-1-(6-(1-(2-tetrahydrothienylformyl)pyrrolidine-3-yl)hexyl)-3-(3-pyridinyl)guanidine]",90,40,109,62,69,46,83
"N#CN=C(NCCCCCC1CCN(C(=O)C2CCCS2)C1)Nc1ccncc1 (stereo not drawn) [BSS-PC034, 2-cyano-1-(5-(1-(2-tetrahydrothienylformyl)pyrrolidine-3-yl)pentyl)-3-(4-pyridinyl)guanidine]",37,18,27,31,23,23,39
"N#CN=C(NCCCCCCC1CCN(C(=O)c2ccc[nH]2)C1)Nc1ccncc1 (stereo not drawn) [BSS-PC056, 2-cyano-1-(6-(1-(2-pyrrolylformyl)pyrrolidine-3-yl)hexyl)-3-(4-pyridinyl)guanidine]",39,33,73,39,47,44,42
"N#CN=C(NCCCCCN1CCN(C(=O)c2occc2F)CC1)Nc1ccncc1 [BSS-PC023, 2-cyano-1-(5-(1-(3-fluoro-2-furylformyl)piperazine-4-yl)pentyl)-3-(4-pyridinyl)guanidine]",57,30,52,430,42,39,43
N#CN=C(NCCCCCCC1CCN(C(=O)c2ccco2)C1)Nc1cc(Cl)nc(Cl)c1 (stereo not drawn) [BSS-PC080],83,42,75,64,66,51,62
"N#CN=C(NCCCCCCC1CCN(C(=O)c2ccco2)C1)Nc1ccncc1 (stereo not drawn) [BSS-PC057, 2-cyano-1-(6-(1-(furoyl)pyrrolidine-3-yl)hexyl)-3-(4-pyridinyl)guanidine]",64,51,69,31,53,37,60
"COc1cccc(OC)c1C(=O)N1CCC(CCCCCNC(=NC#N)Nc2ccncc2)C1 (stereo not drawn) [BSS-PC031, 2-cyano-1-(5-(1-(2,6-dimethoxybenzoyl)pyrrolidine-3-yl)pentyl)-3-(4-pyridinyl)guanidine]",109,23,49,37,42,27,94
"N#CN=C(NCCCCCN1CCN(C(=O)c2ccco2)CC1)Nc1cccnc1 [BSS-PC026, 2-cyano-1-(5-((1-furoyl)piperazine-4-yl)pentyl)-3-(3-pyridinyl)guanidine]",55,20,73,30,32,31,72
"N#CN=C(NCCCCCN1CCN(C(=O)c2[nH]ccc2F)CC1)Nc1ccncc1 [BSS-PC024, 2-cyano-1-(5-(1-(3-fluoro-2-pyrrolylformyl)piperazine-4-yl)pentyl)-3-(4-pyridinyl)guanidine]",51,21,50,41,53,37,49

# Continued by falling IC50 [1], values first:
IC50 [1] [nM],IC50 [2] [nM],IC50 [3] [nM],IC50 [4] [nM],IC50 [5] [nM],IC50 [6] [nM],IC50 [7] [nM],Compound
153,49,72,65,75,61,106,"N#CN=C(NCCCCCCC1CCN(C(=O)c2cc3ccccc3[nH]2)C1)Nc1ccncc1 (stereo not drawn) [BSS-PC071, 2-cyano-1-(6-(1-(2-indolylformyl)pyrrolidine-3-yl)hexyl)-3-(4-pyridinyl)guanidine]"
101,38,89,59,55,51,107,"N#CN=C(NCCCCCN1CCN(C(=O)c2ccc[nH]2)CC1)Nc1ccncc1 [BSS-PC008, 2-cyano-1-(5-(1-(2-pyrrolylformyl)piperazine-4-yl)pentyl)-3-(4-pyridinyl)guanidine]"
101,38,97,78,31,31,85,"N#CN=C(NCCCCCCC1CCN(C(=O)c2cccs2)C1)Nc1cccnc1 (stereo not drawn) [BSS-PC060, 2-cyano-1-(6-(1-(2-thienylformyl)pyrrolidine-3-yl)hexyl)-3-(3-pyridinyl)guanidine]"
88,52,81,65,70,59,83,"N#CN=C(NCCCCCN1CCN(C(=O)c2cc3ccccc3o2)CC1)Nc1ccncc1 [BSS-PC022, 2-cyano-1-(5-(1-(2-benzofurylformyl)piperazine-4-yl)pentyl)-3-(4-pyridinyl)guanidine]"
86,27,33,41,32,16,79,"N#CN=C(NCCCCCC1CCN(C(=O)C2CCCN2)C1)Nc1ccncc1 (stereo not drawn) [BSS-PC035, 2-cyano-1-(5-(1-(2-pyrrolidinylformyl)pyrrolidine-3-yl)pentyl)-3-(4-pyridinyl)guanidine]"
82,34,66,43,35,25,95,"N#CN=C(NCCCCCN1CCN(C(=O)c2cccs2)CC1)Nc1ccncc1 [BSS-PC004, 2-cyano-1-(5-(1-(2-thienylformyl)piperazine-4-yl)pentyl)-3-(4-pyridinyl)guanidine]"
69,40,81,47,63,49,92,"COc1cccc(OC)c1C(=O)N1CCN(CCCCCNC(=NC#N)Nc2cccnc2)CC1 [BSS-PC027, 2-cyano-1-(5-(1-(2,6-dimethoxybenzoyl)piperazine-4-yl)pentyl)-3-(3-pyridinyl)guanidine]"
58,23,47,39,46,34,49,"N#CN=C(NCCCCCCC1CCN(C(=O)c2ccco2)C1)Nc1cccnc1 (stereo not drawn) [BSS-PC062, 2-cyano-1-(6-(1-(furoyl)pyrrolidine-3-yl)hexyl)-3-(3-pyridinyl)guanidine]"
57,29,55,42,35,31,74,"N#CN=C(NCCCCCC1CCN(C(=O)c2[nH]ccc2F)C1)Nc1ccncc1 (stereo not drawn) [BSS-PC049, 2-cyano-1-(5-(1-(3-fluoro-2-pyrrolylformyl)pyrrolidine-3-yl)pentyl)-3-(4-pyridinyl)guanidine]"
